These results are taken from article PMC6957260 (European journal of medicinal chemistry, 2013).

pEC50: −log10 of the molar value.

Usually pEC50 stands for the EC50 on a negative log10 scale, so that one unit is a factor of ten.

Assay [1] has as its target T1, rat TRPV1 (Rattus norvegicus, UniProt O35433). The following applies: cited from earlier work.
The test system of a further assay is hTRPV1. The note with it: hTRPV1 in HEK-293 cells, cited from earlier work; for pEC50: read-out: agonism EC50.
The target of assay [2] is T1, rat TRPV1. Kind of assay: functional 45Ca2+ uptake assay, agonism, rat TRPV1 in CHO cells. The following applies: for fold less potency for agonism compared to the parent compound: rat TRPV1, parents 2 and 3, respectively. The class given is cell-based.
For a further assay, the target named is human TRPV1 (Homo sapiens, UniProt Q8NER1). The class given is cell-based.
human TRPV1, sequence (Q8NER1 whole entry): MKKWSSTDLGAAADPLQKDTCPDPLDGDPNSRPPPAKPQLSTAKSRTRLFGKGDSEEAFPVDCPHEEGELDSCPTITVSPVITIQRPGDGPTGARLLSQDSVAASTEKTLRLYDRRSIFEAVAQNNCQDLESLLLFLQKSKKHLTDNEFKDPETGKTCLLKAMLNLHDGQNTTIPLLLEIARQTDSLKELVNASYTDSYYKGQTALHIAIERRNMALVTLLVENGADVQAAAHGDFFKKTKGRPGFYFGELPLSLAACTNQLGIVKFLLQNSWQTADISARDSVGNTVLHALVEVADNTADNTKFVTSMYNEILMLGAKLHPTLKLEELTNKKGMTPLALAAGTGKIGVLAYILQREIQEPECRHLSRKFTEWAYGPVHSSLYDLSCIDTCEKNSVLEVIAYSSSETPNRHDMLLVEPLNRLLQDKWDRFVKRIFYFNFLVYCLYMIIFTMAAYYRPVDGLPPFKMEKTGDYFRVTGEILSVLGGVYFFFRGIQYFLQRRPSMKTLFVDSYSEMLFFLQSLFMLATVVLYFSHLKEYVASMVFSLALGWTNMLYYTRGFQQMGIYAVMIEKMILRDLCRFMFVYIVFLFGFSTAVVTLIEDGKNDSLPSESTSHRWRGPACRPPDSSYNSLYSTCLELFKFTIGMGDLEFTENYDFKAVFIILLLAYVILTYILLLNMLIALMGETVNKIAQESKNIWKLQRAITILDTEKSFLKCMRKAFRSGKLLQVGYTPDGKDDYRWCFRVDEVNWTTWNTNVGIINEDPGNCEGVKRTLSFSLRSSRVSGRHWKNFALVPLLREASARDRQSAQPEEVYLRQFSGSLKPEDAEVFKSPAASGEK
The target of assay [3] is T1, rat TRPV1. Nature of the assay: competitive binding assay with [3H]RTX, rat TRPV1 in CHO cells. The note with it: parents 2 and 3, respectively.
In assay [4] the target is T1, rat TRPV1. It counts as cell-based.

T1 sequence (O35433 whole entry): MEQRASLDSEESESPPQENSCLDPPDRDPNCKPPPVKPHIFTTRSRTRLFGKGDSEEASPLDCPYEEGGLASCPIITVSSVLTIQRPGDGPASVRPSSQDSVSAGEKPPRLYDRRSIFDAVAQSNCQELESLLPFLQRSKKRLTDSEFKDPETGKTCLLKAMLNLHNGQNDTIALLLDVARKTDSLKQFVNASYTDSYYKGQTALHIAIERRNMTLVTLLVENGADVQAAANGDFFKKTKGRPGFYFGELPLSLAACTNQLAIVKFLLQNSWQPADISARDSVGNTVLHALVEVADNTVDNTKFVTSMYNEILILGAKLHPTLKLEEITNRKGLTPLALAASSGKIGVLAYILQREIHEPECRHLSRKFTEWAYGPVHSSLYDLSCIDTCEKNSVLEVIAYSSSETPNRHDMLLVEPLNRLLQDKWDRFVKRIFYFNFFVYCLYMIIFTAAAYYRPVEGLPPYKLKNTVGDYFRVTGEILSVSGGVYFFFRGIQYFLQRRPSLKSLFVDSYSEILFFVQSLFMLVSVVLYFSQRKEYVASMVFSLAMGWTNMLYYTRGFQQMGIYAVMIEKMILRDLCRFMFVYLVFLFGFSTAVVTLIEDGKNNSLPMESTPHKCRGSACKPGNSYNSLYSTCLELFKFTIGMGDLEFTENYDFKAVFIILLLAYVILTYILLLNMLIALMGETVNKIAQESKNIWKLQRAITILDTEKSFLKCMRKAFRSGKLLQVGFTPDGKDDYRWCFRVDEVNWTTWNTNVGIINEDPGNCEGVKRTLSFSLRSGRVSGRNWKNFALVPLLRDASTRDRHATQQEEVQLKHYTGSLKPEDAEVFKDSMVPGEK

As to `C=C(C)[C@@]12C[C@@H](C)C34OC(Cc5ccccc5)(OC1[C@@H]3C=C(COC(=O)Cc1cc(Br)c(N)c(OC)c1)C[C@]1(O)C(=O)C(C)=C[C@@H]41)O2` (some centres unmarked) [5-bromo-4-amino RTX], the “fold more potent than 5′-iodo RTX (antagonism)” value on rat TRPV1 [1] is given as 4.5 fold.

Regarding `C=C(C)[C@]12C[C@@H](C)[C@@]34O[C@](Cc5ccccc5)(O[C@@H]1[C@@H]3C=C(COC(=O)Cc1ccc(O)c(OC)c1)C[C@]1(O)C(=O)C(C)=C[C@@H]41)O2` [Compound 1, Resiniferatoxin, reference compound], the pEC50 in the assay with hTRPV1 is 10.72.

With `C=C(C)[C@]12C[C@@H](C)[C@@]34O[C@](Cc5ccccc5)(O[C@@H]1[C@@H]3C=C(COC(=O)Oc1cc(F)c(O)c(OC)c1)C[C@]1(O)C(=O)C(C)=C[C@@H]41)O2` [Compound 57], the “fold less potent than RTX (functional activity, agonism)” value on rat TRPV1 [2] (rTRPV1) is recorded as “ca. 5 fold”.

Take `C=C(C)[C@]12C[C@@H](C)[C@@]34O[C@](Cc5ccccc5)(O[C@@H]1[C@@H]3C=C(COC(=O)Oc1cc(Cl)c(O)c(OC)c1)C[C@]1(O)C(=O)C(C)=C[C@@H]41)O2` [Compound 58]: the “mean % of agonism relative to capsaicin” value on human TRPV1 is reported as “a The mean % of agonism relative to capsaicin: 52% for 58, 90% for 64”; at rat TRPV1 [2], “a The mean % of agonism relative to capsaicin: 13% for 58, 89% for 63, 83% for 64”.

Regarding `C=C(C)[C@]12C[C@@H](C)[C@@]34O[C@](Cc5ccccc5)(O[C@@H]1[C@@H]3C=C(COC(=O)Oc1cc(I)c(O)c(OC)c1)C[C@]1(O)C(=O)C(C)=C[C@@H]41)O2` [Compound 60], in the assay on hTRPV1, the “fold more potent than RTX (agonism)” value was “ca. 4 fold” and the pEC50 is 11.33.

On to `C=C(C)[C@]12C[C@@H](C)[C@@]34O[C@](Cc5ccccc5)(O[C@@H]1[C@@H]3C=C(COC(=O)Oc1ccc(N)c(OC)c1)C[C@]1(O)C(=O)C(C)=C[C@@H]41)O2` [Compound 62], for which the “fold less potency in binding affinity compared to the parent compound” value on rat TRPV1 [3] is recorded as 4.5 fold. Besides, at rat TRPV1 [2], the “fold less potency for agonism compared to the parent compound” value came out at 4 fold.

Take `C=C(C)[C@]12C[C@@H](C)[C@@]34O[C@](Cc5ccccc5)(O[C@@H]1[C@@H]3C=C(COC(=O)Oc1ccc(NS(C)(=O)=O)c(OC)c1)C[C@]1(O)C(=O)C(C)=C[C@@H]41)O2` [Compound 63]: the “fold less potency in binding affinity compared to the parent compound” value at rat TRPV1 [3] was found to be 5.5 fold. Also, the “fold less potency for agonism compared to the parent compound” value at rat TRPV1 [2] stood at 40 fold.

For the compound `C=C(C)[C@]12C[C@@H](C)[C@@]34O[C@](Cc5ccccc5)(O[C@@H]1[C@@H]3C=C(COC(=O)Oc1cc(F)c(N)c(OC)c1)C[C@]1(O)C(=O)C(C)=C[C@@H]41)O2` [Compound 64], the “mean % of agonism relative to capsaicin” value at human TRPV1 is recorded as “a The mean % of agonism relative to capsaicin: 52% for 58, 90% for 64”.

`C=C(C)[C@]12C[C@@H](C)[C@@]34O[C@](Cc5ccccc5)(O[C@@H]1[C@@H]3C=C(COC(=O)Oc1cc(Cl)c(N)c(OC)c1)C[C@]1(O)C(=O)C(C)=C[C@@H]41)O2` [Compound 65]: the “fold more potent than I-RTX (antagonism)” value on rat TRPV1 [4] is given as “ca. 5 fold”.

Take `C=C(C)[C@]12C[C@@H](C)[C@@]34O[C@](Cc5ccccc5)(O[C@@H]1[C@@H]3C=C(COC(=O)Oc1cc(Br)c(N)c(OC)c1)C[C@]1(O)C(=O)C(C)=C[C@@H]41)O2` [Compound 66]: at rat TRPV1 [4], the “fold more potent than I-RTX (antagonism)” value is recorded as “ca. 5 fold”.
